Values of other authors, collected in US9782362B2, “Uses of compositions containing a roasted extract and xanthohumol” (TA-XAN AG, priority 2012, dated 2017).
Like-named read-outs stand apart in the source and are kept apart here.

Experiments:
[1] = 100 mg/kg/day in drinking water for four weeks, then mated
angiogenesis = details: approx. 1 mg/kg per day three days per os; 4-6 mg/kg per day 60 days drinking water; or 1000 mg/kg subcutaneously
bacterial culture = details: depending on doses ranging between 0.01 to 10 μM
[2] = system: Human breast tumor cells (MXF7 cells); details: daily dose of 4-6 mg/kg in the drinking water; not validated statistically at the 95% level
[3] = system: Cells in culture or rat liver; details: depending on doses ranging between 0.01 to 10 μM
[4] = up to 100 mg/kg/day per os, 4 weeks
[5] = rat
[6] = 4 weeks, female C3H-mice
[7] = system: human Kaposi's sarcoma (KS-IMM) cells; details: approx. 1.2 mg/kg for 23 days
[8] = system: Diacylglycerol acetyltransferase (DGAT); details: in vitro
[9] = system: bone-resorbing cells (osteoclasts); details: in vitro
Estrogen = details: oral three×100 mg/kg over three days
[10] = mice
inflammation = details: oral 4-6 mg/kg per day for 60 days in drinking water
[11] = system: Human breast tumor cells (MX-1 cells); details: daily subcutaneous 1000 mg/kg
[12] = direct chemical interaction
apoptosis = details: 4-6 mg/kg per day for 60 days in the drinking water

COc1cc(O)c(CC=C(C)C)c(O)c1C(=O)/C=C/c1ccc(O)cc1 [xanthohumol]
influence on fertility or lactation [1]: Neither the pre-treatment of the female animals nor of the males had any influence
anti-angiogenetic action (angiogenesis): anti-angiogenetic action
inhibition of mutagenic damage (bacterial culture): up to 100%
growth of the tumor inhibited [2]: 35%
inhibition of DNA damage [3]: up to 100%
toxicity [4]: no indication of toxicity
absorption following oral application [5]: poorly absorbed
state in the excrement ([5]; oral): largely unchanged
development of weight, appearance of organs, haematologically clinical parameters, liver enzyme values, glucose metabolism ([6]; approximately 28 mg/kg/day in drinking water): uninfluenced
impact on health ([6]; drinking water 5×10^−4M ad libitum, approximately 28 mg/kg/day): no unfavorable impact
growth of the tumor inhibited [7]: 68%
DGAT inhibition [8]: inhibition of this enzyme
inhibition of the resorption of bone ([9]; 1 μM): 35%
inhibition of the resorption of bone ([9]; 10 μM): 94%
anti-estrogen action (Estrogen): possible to detect anti-estrogen action
plasma glucose level [10]: reduction
triglycerides [10]: reduction
effect on inflammation (inflammation): inhibitive effect on inflammation was also established in vivo
toxic effects (daily for 4 weeks: 100 mg/kg drinking water, 500 mg/kg in feed, 1000 mg/kg pharyngeal tube): no toxic effects whatsoever could be determined
weight of the liver (high-dose groups (500 mg/kg/day and 1000 mg/kg/day), due to breakdown of glycogen): reduction in the weight of the liver
growth of the tumor inhibited ([11]; in one week): 46%
growth of the tumor inhibited ([11]; in two weeks): 83%
interception of DPPH radical [12]: not able to intercept
induction of apoptosis (apoptosis): could be detected
